Consider 2 compounds from ChEMBL document CHEMBL4033685, “C21-steroidal pregnane sapogenins and their derivatives as anti-inflammatory agents” (Bioorg Med Chem, 2017).

The target in assay [1] is T1, Toll-like receptor 4 (Homo sapiens, UniProt O00206). Nature of the assay: Antagonist activity at TLR4 in human THP1 cells assessed as inhibition of LPS-stimulated NF-kB canonical signaling pathway by measuring decrease in IkBalpha phosphorylation at 10 uM after 3 hrs by Western blot analysis. Type of assay: cell-based.
Assay [2] addresses Toll-like receptor 2 (Homo sapiens) (UniProt O60603). Briefly: Antagonist activity at TLR2 in human THP1 cells assessed as inhibition of PGN-stimulated IL-6 mRNA level at 10 uM after 16 hrs by RT-PCR method. Format: cell-based.
Assay [3] addresses T1, Toll-like receptor 4. Briefly: Antagonist activity at TLR4 in human THP1 cells assessed as inhibition of LPS-stimulated NFkappaB p65 protein expression at 10 uM after 3 hrs by Western blot analysis. Format: cell-based.
In assay [4] the target is Toll-like receptor 3 (Homo sapiens) (UniProt O15455). Nature of the assay: Antagonist activity at TLR3 in human THP1 cells assessed as inhibition of poly IC-stimulated IL-6 mRNA level at 10 uM after 16 hrs by RT-PCR method. Format: cell-based.
Assay [5] deals with T1, Toll-like receptor 4. Nature of the assay: Antagonist activity at TLR4 in human THP1 cells assessed as increase in LPS-stimulated NFkappaB p65 phosphorylation at 10 uM after 3 hrs by Western blot analysis. Type of assay: cell-based.
The target in assay [6] is T1, Toll-like receptor 4. Nature of the assay: Antagonist activity at TLR4 in human THP1 cells assessed as inhibition of LPS-stimulated IL-6 mRNA level at 10 uM after 16 hrs by RT-PCR method. Type of assay: cell-based.
Assay [7] deals with Toll-like receptor 3 (Homo sapiens) (UniProt O15455). Briefly: Antagonist activity at TLR3 in human THP1 cells assessed as inhibition of poly IC-stimulated TNFalpha level at 10 uM by bead based immunoassay. Type of assay: cell-based.
The target is the same in assay [8]. Nature of the assay: Antagonist activity at TLR3 in human THP1 cells assessed as inhibition of poly IC-stimulated RANTES mRNA level at 10 uM after 16 hrs by RT-PCR method. Format: cell-based.
Assay [9] is filed under the species Homo sapiens. Briefly: Inhibition of TNFalpha-stimulated NF-kB signaling pathway (unknown origin) expressed in human AD293 cells after 4 hrs by luciferase reporter gene assay. Format: cell-based.
Assay [10] deals with T1, Toll-like receptor 4. Nature of the assay: Antagonist activity at TLR4 in human THP1 cells harboring human TRAF6 assessed as inhibition of LPS-stimulated IL-6 level at 10 uM by bead based immunoassay. Format: cell-based.
Assay [11] has as its target Transcription factor p65 (Homo sapiens) (UniProt Q04206). Briefly: Upregulation of NF-kB p65 phosphorylation (unknown origin) expressed in human AD293 cells at 10 uM after 3 hrs by Western blot analysis. Format: cell-based.
Assay [12] deals with THP-1. Briefly: Downregulation of IkBalpha protein expression in human THP1 cells at 10 uM after 3 hrs by Western blot analysis. Type of assay: functional, cell-based.
In assay [13] the target is T1, Toll-like receptor 4. Nature of the assay: Antagonist activity at TLR4 in human THP1 cells assessed as inhibition of LPS-stimulated RANTES mRNA level at 10 uM after 16 hrs by RT-PCR method. Type of assay: cell-based.
For assay [14], the target named is Toll-like receptor 2 (Homo sapiens) (UniProt O60603). Briefly: Antagonist activity at TLR2 in human THP1 cells assessed as inhibition of PGN-stimulated RANTES mRNA level at 10 uM after 16 hrs by RT-PCR method. Type of assay: cell-based.
The subject of assay [15] is THP-1. Nature of the assay: Downregulation of IkBalpha protein expression in LPS-stimulated human THP1 cells at 10 uM after 3 hrs by Western blot analysis. Type of assay: functional, cell-based.
In assay [16] the target is T1, Toll-like receptor 4. Nature of the assay: Antagonist activity at TLR4 (unknown origin) expressed in human AD293 cells assessed as inhibition of LPS/ATP-stimulated TLR4/NF-kB signaling pathway after 16 hrs by luciferase reporter gene assay. Type of assay: cell-based.
For assay [17], the target named is Toll-like receptor 2 (Homo sapiens) (UniProt O60603). Briefly: Antagonist activity at TLR2 in human THP1 cells assessed as inhibition of PGN-stimulated RANTES mRNA level after 16 hrs by RT-PCR method. Format: cell-based.
The target of assay [18] is Toll-like receptor 3 (Homo sapiens) (UniProt O15455). Nature of the assay: Antagonist activity at TLR3 in human THP1 cells assessed as inhibition of poly IC-stimulated IL-6 mRNA level after 16 hrs by RT-PCR method. Type of assay: cell-based.
The target of assay [19] is Toll-like receptor 2 (Homo sapiens) (UniProt O60603). Nature of the assay: Antagonist activity at TLR2 in human THP1 cells assessed as inhibition of PGN-stimulated IL-6 mRNA level after 16 hrs by RT-PCR method. Type of assay: cell-based.
The target of assay [20] is T1, Toll-like receptor 4. Briefly: Antagonist activity at TLR4 in human THP1 cells assessed as inhibition of LPS-stimulated IL-6 mRNA level after 16 hrs by RT-PCR method. Format: cell-based.
Assay [21] addresses Toll-like receptor 3 (Homo sapiens) (UniProt O15455). Briefly: Antagonist activity at TLR3 in human THP1 cells assessed as inhibition of poly IC-stimulated RANTES mRNA level after 16 hrs by RT-PCR method. Format: cell-based.
The target in assay [22] is T1, Toll-like receptor 4. Briefly: Antagonist activity at TLR4 in human THP1 cells assessed as inhibition of LPS-stimulated RANTES mRNA level after 16 hrs by RT-PCR method. Format: cell-based.

The source made the active and inactive calls. The calls are words filed in the database; no cut-off is given here.

T1 sequence (O00206 whole entry): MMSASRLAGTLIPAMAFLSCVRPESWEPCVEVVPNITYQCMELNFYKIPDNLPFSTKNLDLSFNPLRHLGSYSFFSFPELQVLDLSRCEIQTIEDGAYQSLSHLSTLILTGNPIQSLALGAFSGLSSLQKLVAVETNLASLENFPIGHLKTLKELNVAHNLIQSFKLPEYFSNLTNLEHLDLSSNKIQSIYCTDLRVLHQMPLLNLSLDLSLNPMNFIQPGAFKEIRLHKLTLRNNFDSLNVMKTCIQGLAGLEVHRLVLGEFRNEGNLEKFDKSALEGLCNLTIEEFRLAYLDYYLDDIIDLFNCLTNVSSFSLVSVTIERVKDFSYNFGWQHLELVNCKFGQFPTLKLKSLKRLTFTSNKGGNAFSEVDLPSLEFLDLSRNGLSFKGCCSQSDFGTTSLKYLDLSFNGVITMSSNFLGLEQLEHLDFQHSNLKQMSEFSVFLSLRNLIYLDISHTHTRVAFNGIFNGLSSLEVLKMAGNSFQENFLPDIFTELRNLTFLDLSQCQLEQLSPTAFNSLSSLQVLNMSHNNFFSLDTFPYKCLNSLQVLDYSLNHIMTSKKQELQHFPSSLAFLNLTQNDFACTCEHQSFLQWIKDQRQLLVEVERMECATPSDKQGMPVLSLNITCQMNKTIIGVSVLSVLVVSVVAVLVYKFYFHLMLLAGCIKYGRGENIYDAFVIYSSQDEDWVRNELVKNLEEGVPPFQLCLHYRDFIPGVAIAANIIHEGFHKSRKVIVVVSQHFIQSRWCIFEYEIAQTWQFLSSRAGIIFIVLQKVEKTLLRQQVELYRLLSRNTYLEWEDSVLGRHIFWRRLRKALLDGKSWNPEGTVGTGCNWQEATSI
Sequence of Toll-like receptor 2 (Homo sapiens) (O60603 whole entry): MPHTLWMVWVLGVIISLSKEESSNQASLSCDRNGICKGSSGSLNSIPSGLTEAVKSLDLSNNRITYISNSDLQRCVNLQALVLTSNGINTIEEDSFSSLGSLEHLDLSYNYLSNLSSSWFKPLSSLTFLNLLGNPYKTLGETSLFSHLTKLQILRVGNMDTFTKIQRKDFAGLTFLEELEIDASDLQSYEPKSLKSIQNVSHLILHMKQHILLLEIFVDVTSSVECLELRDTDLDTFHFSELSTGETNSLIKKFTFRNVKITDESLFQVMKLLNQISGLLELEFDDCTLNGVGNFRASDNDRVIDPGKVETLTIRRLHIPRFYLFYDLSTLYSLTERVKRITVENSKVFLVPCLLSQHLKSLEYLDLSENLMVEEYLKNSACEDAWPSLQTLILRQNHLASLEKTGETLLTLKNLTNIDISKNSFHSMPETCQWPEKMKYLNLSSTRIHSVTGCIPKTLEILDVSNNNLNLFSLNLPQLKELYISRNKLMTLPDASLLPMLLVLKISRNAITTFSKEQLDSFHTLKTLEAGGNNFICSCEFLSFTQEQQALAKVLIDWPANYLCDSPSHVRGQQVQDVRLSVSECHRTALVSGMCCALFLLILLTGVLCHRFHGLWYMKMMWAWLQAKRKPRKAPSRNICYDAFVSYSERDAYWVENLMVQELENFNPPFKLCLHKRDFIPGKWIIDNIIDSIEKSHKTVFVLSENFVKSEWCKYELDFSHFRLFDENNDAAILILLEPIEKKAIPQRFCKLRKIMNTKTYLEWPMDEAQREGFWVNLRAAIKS
Sequence of Toll-like receptor 3 (Homo sapiens) (O15455 whole entry): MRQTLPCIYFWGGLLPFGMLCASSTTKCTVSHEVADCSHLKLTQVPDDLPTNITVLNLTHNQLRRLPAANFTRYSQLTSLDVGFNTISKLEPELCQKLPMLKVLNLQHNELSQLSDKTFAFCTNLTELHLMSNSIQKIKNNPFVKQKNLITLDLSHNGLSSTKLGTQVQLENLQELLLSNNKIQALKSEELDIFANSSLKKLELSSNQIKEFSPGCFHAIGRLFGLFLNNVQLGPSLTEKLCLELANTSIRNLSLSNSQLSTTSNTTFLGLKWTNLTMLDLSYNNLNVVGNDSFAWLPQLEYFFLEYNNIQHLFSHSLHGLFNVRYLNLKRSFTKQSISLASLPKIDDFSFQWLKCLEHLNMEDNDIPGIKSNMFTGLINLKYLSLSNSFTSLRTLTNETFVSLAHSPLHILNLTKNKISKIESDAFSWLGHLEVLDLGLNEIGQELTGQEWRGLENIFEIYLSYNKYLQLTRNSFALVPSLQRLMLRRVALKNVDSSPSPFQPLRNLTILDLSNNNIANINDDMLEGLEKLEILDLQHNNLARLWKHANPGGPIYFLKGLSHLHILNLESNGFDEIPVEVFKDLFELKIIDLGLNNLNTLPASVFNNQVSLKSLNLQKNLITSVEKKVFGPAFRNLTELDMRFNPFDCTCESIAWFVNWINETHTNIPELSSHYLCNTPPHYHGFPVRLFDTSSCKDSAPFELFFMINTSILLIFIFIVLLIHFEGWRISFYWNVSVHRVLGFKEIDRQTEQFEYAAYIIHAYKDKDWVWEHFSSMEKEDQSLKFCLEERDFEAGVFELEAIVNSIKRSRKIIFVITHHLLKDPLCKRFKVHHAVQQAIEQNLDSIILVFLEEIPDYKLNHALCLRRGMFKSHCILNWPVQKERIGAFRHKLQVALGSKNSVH
Sequence of Transcription factor p65 (Homo sapiens) (Q04206 whole entry): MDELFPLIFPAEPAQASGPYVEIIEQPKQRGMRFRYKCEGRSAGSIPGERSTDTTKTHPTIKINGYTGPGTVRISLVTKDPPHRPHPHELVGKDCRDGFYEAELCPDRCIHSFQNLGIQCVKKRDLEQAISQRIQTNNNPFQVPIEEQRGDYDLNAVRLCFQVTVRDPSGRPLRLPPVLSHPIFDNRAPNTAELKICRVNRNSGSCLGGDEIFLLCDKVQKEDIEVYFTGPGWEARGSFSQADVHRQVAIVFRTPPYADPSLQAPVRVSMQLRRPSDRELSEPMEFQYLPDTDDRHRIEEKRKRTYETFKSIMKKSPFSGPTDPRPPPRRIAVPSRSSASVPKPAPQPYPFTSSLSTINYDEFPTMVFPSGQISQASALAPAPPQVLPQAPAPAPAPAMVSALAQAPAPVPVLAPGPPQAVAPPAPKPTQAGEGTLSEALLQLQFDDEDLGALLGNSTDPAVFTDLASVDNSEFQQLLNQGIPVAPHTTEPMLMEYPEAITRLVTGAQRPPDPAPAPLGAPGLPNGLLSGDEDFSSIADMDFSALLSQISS

Turning to `CC(=O)[C@]1(O)CC[C@@]2(O)[C@]1(C)[C@H](OC(=O)c1ccc(O)cc1)C[C@@H]1[C@@]3(C)CC[C@H](OC(=O)CCl)CC3=CC[C@]12O`, the inhibition entry in [1], in [5] and in assay [10] was “inactive” in each case. The inhibition result in [2], in [3], in assay [4], in assay [6], in assay [7] and in assay [8] was “Active” in each case. Moreover, the inhibition result in assay [13] and in assay [14] was “Active” each time. Besides, in assay [9], the EC10 was more than 10 µM. The outcome in assay [11], in assay [12] and in [15] was Active. For the same compound, in assay [16], the EC50 amounted to 3.27 µM.
Turning to `COc1ccc(/C=C/C(=O)O[C@H]2CC[C@@]3(C)C(=CC[C@]4(O)[C@@H]3C[C@@H](OC(=O)/C=C(\C)C(C)C)[C@@]3(C)[C@]4(O)CC[C@@]3(O)C(C)=O)C2)cc1`, the inhibition result in [17], in [18], in assay [19], in assay [20], in [21] and in [22] was “Dose-dependent effect” each time. The inhibition entry in [5] and in assay [7] was “Active” in each case. The compound also gave an EC10 in [9] of more than 10 µM. In assay [10], the inhibition result is “inactive”. Moreover, the EC50 in assay [16] came out at 3.95 µM.
